Among the data in PubChem BioAssay (NCI) are TGI and GI50 values, retold here.

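The compound was tested at five concentrations on cells cultured in 96-well plates, with a 48-hour exposure period. GI50 is the concentration that inhibits growth by half. TGI: total growth inhibition.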

Among the test systems are COLO 205 colon; MALME-3M melanoma; NCI-H226 lung; NCI-H460 lung; OVCAR-5 ovarian; SK-OV-3 ovarian; SR leukemia; UACC-257 melanoma; UACC-62 melanoma; HCC-2998 colon.
Common to all, as to test: NCI tumour cell line growth inhibition, 48 h

As to `CC1(CC(=O)O)OC2CCCCCC2O1` (configuration not stated) (tested in a mixture with another compound), the TGI with COLO 205 colon, with MALME-3M melanoma, in the test on NCI-H226 lung, with NCI-H460 lung, with OVCAR-5 ovarian and in the test on SK-OV-3 ovarian was more than 100 µM each time. Besides, the TGI in the test with SR leukemia, in the test on UACC-257 melanoma and with UACC-62 melanoma was more than 100 µM throughout.

In the case of `CCOC(=O)c1[nH]c2c(c1C)-c1[nH]c(=O)c(S(=O)(=O)c3ccccc3)cc1SC2`, the GI50 in the test on COLO 205 colon was 22.5 µM; in the test with HCC-2998 colon it was more than 100 µM; in the test on MALME-3M melanoma, 36.4 µM; with NCI-H226 lung, 64.4 µM; in the test with NCI-H460 lung it was 34.6 µM; in the test with OVCAR-5 ovarian, more than 100 µM. In addition, the GI50 in the test with SK-OV-3 ovarian was 56.6 µM; with SR leukemia, 30.3 µM; with UACC-257 melanoma, 67.1 µM; in the test with UACC-62 melanoma, 46.7 µM. For the same molecule, the TGI in the test with COLO 205 colon was 46.4 µM; in the test with HCC-2998 colon it was more than 100 µM; with MALME-3M melanoma, more than 100 µM; in the test on NCI-H226 lung, more than 100 µM; in the test with NCI-H460 lung it was more than 100 µM; in the test on OVCAR-5 ovarian, more than 100 µM. The TGI in the test with SK-OV-3 ovarian, in the test on SR leukemia, in the test on UACC-257 melanoma and in the test with UACC-62 melanoma was more than 100 µM throughout.

Turning to `Cc1ccc(NCSc2ccc(Cl)cc2)cc1`, the GI50 in the test with COLO 205 colon is 5.94 µM; in the test on HCC-2998 colon, more than 100 µM; in the test with MALME-3M melanoma it was more than 100 µM; in the test on NCI-H226 lung, 44.7 µM; with NCI-H460 lung it was more than 100 µM; in the test with OVCAR-5 ovarian, more than 100 µM. In addition, the GI50 with SK-OV-3 ovarian is 67 µM; in the test on SR leukemia, more than 100 µM; with UACC-257 melanoma it was more than 100 µM; with UACC-62 melanoma it was 87.2 µM. For the same molecule, the TGI in the test on COLO 205 colon, in the test with HCC-2998 colon, in the test with MALME-3M melanoma, in the test with NCI-H226 lung, with NCI-H460 lung and in the test on OVCAR-5 ovarian was more than 100 µM each time. The TGI with SK-OV-3 ovarian, in the test on SR leukemia, in the test with UACC-257 melanoma and in the test on UACC-62 melanoma was more than 100 µM each time.

`CC1Cc2c(N(C)C)ncnc2N(C)c2ccc(Cl)cc21` (configuration not stated): the GI50 with COLO 205 colon was 2.44 µM; in the test with HCC-2998 colon it was 6.9 µM; in the test with MALME-3M melanoma, 3.73 µM; in the test on NCI-H226 lung, 11 µM; with NCI-H460 lung, 3.86 µM; in the test on SK-OV-3 ovarian it was 4.93 µM. The GI50 with SR leukemia is 0.463 µM. Besides, the TGI stood at 6.55 µM in the test on COLO 205 colon; 37.3 µM in the test with HCC-2998 colon; 60 µM in the test on MALME-3M melanoma; 57.8 µM with NCI-H226 lung; 46.6 µM with NCI-H460 lung; 72.1 µM in the test with SK-OV-3 ovarian. Also, the TGI in the test on SR leukemia amounted to 20.3 µM.

Take `Cc1ccc([P+](Cc2ccc([N+](=O)[O-])cc2)(c2ccc(C)cc2)c2ccc(C)cc2)cc1`: the GI50 with COLO 205 colon was 1.65 µM; in the test with HCC-2998 colon it was 2.87 µM; with NCI-H226 lung it was 5.31 µM; in the test with NCI-H460 lung, 4.26 µM; in the test with OVCAR-5 ovarian it was 6.68 µM; in the test with SK-OV-3 ovarian, 12 µM. Besides, the GI50 was 2.84 µM in the test on SR leukemia, 1.69 µM with UACC-257 melanoma and 1.43 µM in the test with UACC-62 melanoma. In addition, the TGI came to 3.95 µM with COLO 205 colon; 11.8 µM in the test with HCC-2998 colon; 21.4 µM in the test on NCI-H226 lung; 16.8 µM with NCI-H460 lung; 23.3 µM in the test with OVCAR-5 ovarian; 25.2 µM in the test with SK-OV-3 ovarian. Also, the TGI in the test with SR leukemia amounted to 12.3 µM; in the test on UACC-257 melanoma it was 5.3 µM; with UACC-62 melanoma, 6.34 µM.

In the case of `N#Cc1c2c(c(N=[N+]=[N-])n3c1nc1ccccc13)CCCC2`, the TGI with COLO 205 colon is 13.1 µM; in the test on HCC-2998 colon it was 25.8 µM; in the test with MALME-3M melanoma it was 5.96 µM; in the test on NCI-H226 lung, 3.35 µM; in the test with NCI-H460 lung, 3.82 µM; with OVCAR-5 ovarian, 16.8 µM. Besides, the figures for the TGI with SK-OV-3 ovarian, in the test on SR leukemia and in the test on UACC-257 melanoma were 3.64 µM, more than 100 µM and 3.12 µM, respectively.

With `CCOC(=O)/C=C1\Nc2ccccc2C(c2ccccc2)=NC1OC(C)=O` (configuration not stated), the TGI in the test with COLO 205 colon, in the test with HCC-2998 colon, with MALME-3M melanoma, in the test with NCI-H460 lung, in the test with SK-OV-3 ovarian and in the test with SR leukemia was more than 100 µM in each case. Moreover, the TGI with UACC-257 melanoma and with UACC-62 melanoma was more than 100 µM throughout.

Take `CCC1OCCN1C(C)C` (configuration not stated): the TGI in the test on COLO 205 colon, with HCC-2998 colon, in the test with MALME-3M melanoma, in the test on NCI-H460 lung, in the test on OVCAR-5 ovarian and with SK-OV-3 ovarian was more than 100 µM in each case. For the same molecule, the TGI with SR leukemia, with UACC-257 melanoma and in the test with UACC-62 melanoma was more than 100 µM throughout.

As for `CC(CC(=O)O)(CC(=O)O)C(=O)O`, the TGI in the test on COLO 205 colon, in the test on HCC-2998 colon, in the test with MALME-3M melanoma, with NCI-H460 lung, in the test with OVCAR-5 ovarian and in the test with SK-OV-3 ovarian was more than 100 µM throughout. In addition, the TGI in the test on SR leukemia, in the test on UACC-257 melanoma and in the test with UACC-62 melanoma was more than 100 µM in each case.

Take `COc1ccc(C2=CC(c3cc(OC)c(OC)c(OC)c3)n3ncnc3N2)cc1` (configuration not stated): the GI50 with COLO 205 colon is 0.0335 µM; with HCC-2998 colon it was 0.24 µM; with NCI-H226 lung, 7.99 µM; with NCI-H460 lung it was 0.0418 µM; in the test on OVCAR-5 ovarian, 0.502 µM; with SK-OV-3 ovarian, 0.0513 µM. Moreover, the GI50 is 0.0439 µM in the test on SR leukemia and 0.0689 µM in the test on UACC-62 melanoma. Also, the TGI is 0.16 µM in the test with COLO 205 colon; more than 100 µM in the test with HCC-2998 colon; 71 µM with NCI-H226 lung; 13.7 µM in the test on NCI-H460 lung; more than 100 µM in the test on OVCAR-5 ovarian; 27 µM in the test on SK-OV-3 ovarian. Also, the TGI in the test on SR leukemia and in the test on UACC-62 melanoma was more than 100 µM throughout.
